Where two headings read alike, the source gives them in different places. Starred links: 1 amine or outer side, 2 acyl side, 3 side chain; linkers in the order of their positions; H or OH if unused. Non-standard residues stand in square brackets, D forms with d. Groups on a side chain read outwards from the residue. No end group written: not given here. *: point of attachment. C20 diacid = O=C(O)CCCCCCCCCCCCCCCCCCC(=O)*; C18 diacid = O=C(O)CCCCCCCCCCCCCCCCC(=O)*; γGlu = O=C(O)[C@H](CCC(=O)[*:2])N[*:1]; αMe4Pal = C[C@](N)(Cc1ccncc1)C(=O)O; 4Pal = N[C@@H](Cc1ccncc1)C(=O)O; αMeL = CC(C)C[C@](C)(N)C(=O)O; Orn = NCCC[C@H](N)C(=O)O; AEEA = NCCOCCOCC(=O)O; Aib = CC(C)(N)C(=O)O
What was measured:
Type in all cases: cell-based
[1] = biological target: T1, hGLP-1R (Homo sapiens, UniProt P43220); assay: Functional cAMP activity in the presence of 1% HSA
T1 sequence (P43220 24-463): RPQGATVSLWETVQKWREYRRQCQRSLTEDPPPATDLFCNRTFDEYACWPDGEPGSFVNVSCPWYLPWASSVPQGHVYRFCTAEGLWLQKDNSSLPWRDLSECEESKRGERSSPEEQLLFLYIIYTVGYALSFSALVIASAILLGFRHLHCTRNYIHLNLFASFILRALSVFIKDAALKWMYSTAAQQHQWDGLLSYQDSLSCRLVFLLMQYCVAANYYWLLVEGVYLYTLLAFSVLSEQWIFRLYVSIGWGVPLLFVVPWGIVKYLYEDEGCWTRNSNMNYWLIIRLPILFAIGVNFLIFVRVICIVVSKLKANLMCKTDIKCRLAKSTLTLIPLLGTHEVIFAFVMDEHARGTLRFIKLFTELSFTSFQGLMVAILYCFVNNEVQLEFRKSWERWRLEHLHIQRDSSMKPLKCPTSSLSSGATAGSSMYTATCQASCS

[2] = biological target: T1, hGLP-1R; assay: Functional cAMP activation in the presence of 0.1% casein (no HSA);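 as to Relative cAMP EC50, hGIPR: intracellular cAMP rise after 30 min at 37 °C read by HTRF against a standard curve, scaled between buffer alone (0%) and top control ligand concentration (100%), four-parameter fit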;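 as to Relative cAMP EC50, hGLP-1R: intracellular cAMP rise after 30 min at 37 °C read by HTRF, normalized between buffer only (0%) and maximal control ligand (100%), four-parameter variable-slope fit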
[3] = biological target: T2, hGIPR (Homo sapiens, UniProt P48546); assay: Functional cAMP activity in the presence of 1% HSA
T2 sequence (P48546 22-466): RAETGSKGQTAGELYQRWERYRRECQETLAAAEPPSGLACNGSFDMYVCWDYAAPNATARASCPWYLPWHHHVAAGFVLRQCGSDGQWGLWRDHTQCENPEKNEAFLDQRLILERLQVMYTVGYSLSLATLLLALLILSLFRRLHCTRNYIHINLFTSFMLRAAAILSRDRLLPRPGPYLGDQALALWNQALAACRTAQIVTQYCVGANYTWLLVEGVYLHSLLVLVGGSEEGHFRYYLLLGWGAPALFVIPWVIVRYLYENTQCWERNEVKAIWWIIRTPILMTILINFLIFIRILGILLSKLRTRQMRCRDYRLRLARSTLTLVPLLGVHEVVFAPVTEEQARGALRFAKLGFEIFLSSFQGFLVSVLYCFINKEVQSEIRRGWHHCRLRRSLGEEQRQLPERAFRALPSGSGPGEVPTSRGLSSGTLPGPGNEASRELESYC

[4] = biological target: human GLP1-R (Homo sapiens, UniProt P43220); assay: GLP1-R internalization assay in HEK293 cells; details: for Internalization % TOP: normalized to maximum concentration of GLP-1 (100%)
Sequence of human GLP1-R (P43220 24-463): as the sequence (P43220 24-463) above

[5] = biological target: hGcgR (Homo sapiens, UniProt P47871); assay: Functional cAMP activation in the presence of 0.1% casein (no HSA);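 also: intracellular cAMP rise after 30 min at 37 °C, read by HTRF against a cAMP standard curve, scaled from buffer only (0%) to maximal control ligand response (100%)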
Sequence of hGcgR (P47871 26-477): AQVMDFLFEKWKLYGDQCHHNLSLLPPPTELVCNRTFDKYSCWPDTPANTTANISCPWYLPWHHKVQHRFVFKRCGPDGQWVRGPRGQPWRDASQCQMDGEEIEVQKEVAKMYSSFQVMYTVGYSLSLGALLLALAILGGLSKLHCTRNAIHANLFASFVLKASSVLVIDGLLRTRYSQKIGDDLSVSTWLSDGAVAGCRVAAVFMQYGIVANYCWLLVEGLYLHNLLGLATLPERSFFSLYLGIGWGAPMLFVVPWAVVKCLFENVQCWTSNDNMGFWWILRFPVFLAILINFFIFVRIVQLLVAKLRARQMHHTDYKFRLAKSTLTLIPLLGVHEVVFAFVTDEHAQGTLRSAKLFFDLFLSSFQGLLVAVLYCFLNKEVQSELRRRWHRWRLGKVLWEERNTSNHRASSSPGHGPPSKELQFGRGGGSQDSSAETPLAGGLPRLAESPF

[6] = biological target: T2, hGIPR; assay: as above
[7] = biological target: human GcgR (Homo sapiens, UniProt P47871); assay: Functional cAMP activity in the presence of 1% HSA
Sequence of human GcgR (P47871 26-477): as above

[8] = read-out: cAMP Rel EC50, hGLP-1R
[9] = in the presence of 0.1% casein (no HSA), geometric mean, read-out: Relative cAMP EC50, hGLP-1R
[10] = HEK293 cells expressing SNAP-GLP-1R, read-out: GLP1R Internalization EC50
[11] = in the presence of 0.1% casein (no HSA), geometric mean, read-out: Relative cAMP EC50, hGcgR
[12] = in the presence of 0.1% casein (no HSA), geometric mean, read-out: Relative cAMP EC50, hGIPR

Compound	EC50 [1, 8]	EC50 [2, 9]	EC50 ([3]; read-out: cAMP Rel EC50, hGIPR)	EC50 [4, 10]	Internalization % TOP [4]	EC50 [5, 11]	EC50 [6, 12]	EC50 ([7]; read-out: cAMP Rel EC50, hGcgR)	EC50 [1]	EC50 [2]	EC50 [3]	EC50 [4]	EC50 [5]	EC50 [6]	EC50 [7]
H-Y[Aib]QGTFTSDFS[Orn][αMeL]LDKK([AEEA-γGlu-C18 diacid])AQ[Aib]AFIEYLLEGG[4Pal]SSGAPPPGGS-NH2 [Example 163]	762 nM	6.5 nM	52 nM	143 nM	37.8%	5.6 nM	0.376 nM	790 nM							
H-Y[Aib]QGTFTSDFS[Orn][αMeL]LDKK([AEEA-γGlu-γGlu-C18 diacid])AQ[Aib]AFIEYLLE[Aib]GPSSGAPPPSGT-NH2 [Example 278]	241 nM	4.11 nM	7.69 nM	251 nM	68.6%	4.45 nM	0.0963 nM	274 nM							
H-Y[Aib]QGTFTSDFSR[αMeL]LDKK([AEEA-γGlu-C20 diacid])AQ[Aib]AFIEYLLE[Aib]GPSSGAPPPGGS-NH2 [Example 42]					58.3%				700 nM	2.17 nM	32.3 nM	61.4 nM	5.83 nM	0.115 nM	1520 nM
H-Y[Aib]QGTFTSDFS[Orn][αMeL]LDKK([AEEA-γGlu-C18 diacid])AQ[Aib]AFIEWLLEGGSSSGAPPPSGE-NH2 [Example 172]	457 nM	3.5 nM	29.3 nM	121 nM	41.4%	3.38 nM	0.174 nM	605 nM							
H-Y[Aib]QGTFTSDFS[Orn][αMeL]LDKK([AEEA-AEEA-γGlu-C18 diacid])AQ[Aib]AFIEYLLE[dA]GPSSGEPPPSGE-NH2 [Example 117]	524 nM	6.4 nM	29.9 nM	45.5 nM	51%	4.75 nM	0.267 nM	867 nM							
H-Y[Aib]QGTFTSDFS[Orn][αMeL]LDKK([AEEA-γGlu-γGlu-C18 diacid])AQ[Aib]AFIEYLLE[Aib]GPSSGAPPPSGS-NH2 [Example 192]	719 nM	9.77 nM	9.86 nM	115 nM	48.7%	4.18 nM	0.142 nM	560 nM							
H-Y[Aib]QGTFTSDFS[Orn][αMeL]LDKK([AEEA-γGlu-C18 diacid])AQ[Aib]AFIEYLLAGGPSSGAPPPSGSE-NH2 [Example 90]	371 nM	2.68 nM	24.9 nM	70.8 nM	49.8%	9.58 nM	0.173 nM	990 nM							
H-Y[Aib]QGTFTSD[4Pal]SK[αMeL]LDKK([AEEA-γGlu-C18 diacid])AQ[Aib]AFIEYLIA[Aib]GESSGAPPPSGS-NH2 [Example 285]	365 nM	2.87 nM	8.22 nM	59.9 nM	73.6%	2.32 nM	0.0652 nM	409 nM							
H-Y[Aib]QGTFTSDFS[Orn][αMeL]LDKK([AEEA-γGlu-C18 diacid])AQ[Aib]AFIEYLLE[Aib]GPSSGAPPPSGT-NH2 [Example 200]	395 nM	3.19 nM	13.7 nM	86.1 nM	39.2%	2.83 nM	0.0739 nM	360 nM							
H-Y[Aib]QGTFTSDFS[Orn][αMeL]LDKK([AEEA-γGlu-C18 diacid])AQ[Aib]AFIEYLLEGGPSSGAPPPGGT-NH2 [Example 158]	184 nM	2.49 nM	24.7 nM	104 nM	52.4%	3.72 nM	0.245 nM	325 nM							
H-Y[Aib]QGTFTSDFSK[αMeL]LDKK([AEEA-γGlu-C18 diacid])AQ[Aib]AFIEYLLE[Aib]GPSSGAPPPSEG-NH2 [Example 57]	42.7 nM	3.06 nM	3.78 nM	76.6 nM	73.1%	4.37 nM	0.098 nM	113 nM							
H-Y[Aib]QGTFTSDFS[Orn][αMeL]LDKK([AEEA-γGlu-C18 diacid])AQ[Aib]AFIEYLLAGGPSSGAPPPEGE-NH2 [Example 99]	588 nM	3.54 nM	29.5 nM	56.9 nM	46.1%	6.09 nM	0.174 nM	1130 nM							
H-Y[Aib]QGTFTSDFS[Orn][αMeL]LDKK([AEEA-γGlu-C18 diacid])AQ[Aib]AFIEYLLEGGHSSGEPPPGGS-NH2 [Example 164]	962 nM	5.02 nM	59 nM	45.9 nM	46.5%	2.92 nM	0.302 nM	411 nM							
H-Y[Aib]QGTFTSDFSK[αMeL]LDKK([AEEA-γGlu-C20 diacid])AQ[Aib]AFIEYLLEGGPSSGAPPPGGS-NH2 [Example 18]	561 nM	2.31 nM	59.6 nM	91.8 nM	74.1%	2.7 nM	0.337 nM	1210 nM							
H-Y[Aib]QGTFTSD[4Pal]SK[αMeL]LDKK([AEEA-γGlu-C18 diacid])AQ[Aib]AFIEYLIE[Aib]GESSGAPPPSGS-NH2 [Example 280]	171 nM	0.95 nM	15.6 nM	39.4 nM	74.9%	8.63 nM	0.105 nM	1600 nM							
Y[Aib]QGTFTSDFS[Orn][αMeL]LDKK([AEEA-γGlu-C18 diacid])AQ[Aib]AFIEYLLEGGPSSGAPPPSEG-NH2 [Example 50]	1110 nM	4.65 nM	69.6 nM	30.1 nM	31.1%	4.25 nM	0.29 nM	1040 nM							
H-Y[Aib]QGTFTSDYSK[αMeL]LDKK([AEEA-γGlu-C18 diacid])AQ[Aib]AFIEYLLEGGESSGAPPPSGS-NH2 [Example 358]	492 nM	2.31 nM	38.8 nM	21.5 nM	83.1%	2.78 nM	0.182 nM	876 nM							
H-Y[Aib]QGTFTSDFSQ[αMeL]LDKK([AEEA-γGlu-C18 diacid])AQ[αMe4Pal]AFIEYLIE[Aib]GESSGAPPPSGE-NH2 [Example 233]					41.8%				223 nM	0.874 nM	28.1 nM	24.8 nM	2.25 nM	0.0884 nM	453 nM
H-Y[Aib]QGTFTSDFS[Orn][αMeL]LDKK([AEEA-γGlu-C18 diacid])AQ[Aib]AFIEYLLAGGPSSGAPPPSGT-NH2 [Example 87]	290 nM	2.75 nM	12.8 nM	61.8 nM	45.4%	8.51 nM	0.128 nM	1110 nM							
CC[C@H](C)[C@H](NC(=O)[C@H](Cc1ccccc1)NC(=O)[C@H](C)NC(=O)C(C)(C)NC(=O)[C@H](CCC(N)=O)NC(=O)[C@H](C)NC(=O)[C@H](CCCCNC(=O)COCCOCCNC(=O)CC[C@H](NC(=O)CCCCCCCCCCCCCCCCC(=O)O)C(=O)O)NC(=O)[C@H](CCCCN)NC(=O)[C@H](CC(=O)O)NC(=O)[C@H](CC(C)C)NC(=O)[C@](C)(CC(C)C)NC(=O)[C@H](CCCN)NC(=O)[C@H](CO)NC(=O)[C@H](Cc1ccncc1)NC(=O)[C@H](CC(=O)O)NC(=O)[C@H](CO)NC(=O)[C@@H](NC(=O)[C@H](Cc1ccccc1)NC(=O)[C@@H](NC(=O)CNC(=O)[C@H](CCC(N)=O)NC(=O)C(C)(C)NC(=O)[C@@H](N)Cc1ccc(O)cc1)[C@@H](C)O)[C@@H](C)O)C(=O)N[C@@H](CCC(=O)O)C(=O)N[C@@H](Cc1ccc(O)cc1)C(=O)N[C@@H](CC(C)C)C(=O)N[C@@H](CC(C)C)C(=O)N[C@@H](C)C(=O)NCC(=O)NCC(=O)N1CCC[C@H]1C(=O)N[C@@H](CO)C(=O)N[C@@H](CO)C(=O)NCC(=O)N[C@@H](C)C(=O)N1CCC[C@H]1C(=O)N1CCC[C@H]1C(=O)N1CCC[C@H]1C(=O)N[C@@H](CO)C(=O)NCC(=O)N[C@@H](CCC(=O)O)C(N)=O [Example 112]	892 nM	5.77 nM		30.1 nM	59.1%	11 nM	0.233 nM	1810 nM							

From patent US20240270821A1, “GIP/GLP1/GCG TRI-RECEPTOR AGONISTS AND USES THEREOF” (priority 2023, published 2024)
